Measured values as given in BigSolDB 2.1.

Cc1ccccc1C(=O)O
Settings	solubility (mole fraction)
in DMAc, 307.65 K	0.0781
in DMAc, 309.65 K	0.0831
in DMAc, 311.25 K	0.0866
in DMAc, 313.15 K	0.0964
in DMAc, 314.35 K	0.106
in DMAc, 317.65 K	0.121
in DMAc, 320.25 K	0.133
in DMAc, 321.85 K	0.143
in DMAc, 325.25 K	0.168
in DMAc, 327.55 K	0.187
in DMAc, 330.25 K	0.21
in DMAc, 332.65 K	0.231
in DMAc, 334.35 K	0.248
in DMAc, 336.15 K	0.264
in DMAc, 337.35 K	0.28
in DMAc, 338.95 K	0.291
in DMAc, 340.35 K	0.309
in DMAc, 341.15 K	0.327
in DMAc, 342.05 K	0.344
in DMAc, 343.15 K	0.362
in DMAc, 344.35 K	0.384
in DMF, 291.15 K	0.329
in DMF, 295.85 K	0.342
in DMF, 299.95 K	0.357
in DMF, 303.75 K	0.371
in DMF, 307.65 K	0.39
in DMF, 311.55 K	0.407
in DMF, 315.55 K	0.423
in DMF, 319.45 K	0.445
in DMF, 323.15 K	0.461
in DMF, 327.25 K	0.481
in DMF, 331.35 K	0.498
in DMSO, 294.05 K	0.497
in DMSO, 299.65 K	0.514
in DMSO, 302.95 K	0.523
in DMSO, 306.35 K	0.534
in DMSO, 308.35 K	0.537
in DMSO, 310.85 K	0.542
in DMSO, 313.15 K	0.548
in DMSO, 315.15 K	0.557
in DMSO, 319.65 K	0.57
in DMSO, 323.65 K	0.581
in DMSO, 327.65 K	0.591
in DMSO, 330.05 K	0.6
in DMSO, 332.15 K	0.608
in DMSO, 334.55 K	0.617
in NMP, 288.95 K	0.449
in NMP, 292.95 K	0.455
in NMP, 296.95 K	0.471
in NMP, 300.65 K	0.49
in NMP, 304.65 K	0.499
in NMP, 308.65 K	0.51
in NMP, 312.65 K	0.518
in NMP, 316.65 K	0.531
in NMP, 321.35 K	0.542
in NMP, 326.35 K	0.559
in acetonitrile, 299.15 K	0.314
in acetonitrile, 300.25 K	0.316
in acetonitrile, 302.95 K	0.323
in acetonitrile, 305.55 K	0.329
in acetonitrile, 310.65 K	0.34
in acetonitrile, 314.35 K	0.346
in acetonitrile, 315.45 K	0.35
in acetonitrile, 319.25 K	0.36
in acetonitrile, 322.65 K	0.369
in acetonitrile, 325.55 K	0.378
in acetonitrile, 329.15 K	0.386
in acetonitrile, 331.75 K	0.393
in acetonitrile, 335.15 K	0.401
in acetonitrile, 338.15 K	0.409
in n-methylformamide, 294.95 K	0.276
in n-methylformamide, 298.15 K	0.286
in n-methylformamide, 303.65 K	0.303
in n-methylformamide, 307.95 K	0.32
in n-methylformamide, 312.95 K	0.343
in n-methylformamide, 318.05 K	0.365
in n-methylformamide, 322.35 K	0.379
in n-methylformamide, 326.15 K	0.392
in n-methylformamide, 330.15 K	0.407
in n-methylformamide, 334.35 K	0.434
in propionic acid, 296.35 K	0.155
in propionic acid, 300.35 K	0.179
in propionic acid, 303.65 K	0.198
in propionic acid, 307.65 K	0.212
in propionic acid, 311.25 K	0.232
in propionic acid, 314.85 K	0.253
in propionic acid, 318.35 K	0.273
in propionic acid, 322.45 K	0.301
in propionic acid, 326.05 K	0.334
in propionic acid, 330.25 K	0.363
in propionic acid, 334.15 K	0.397

O=C(O)c1ccccc1C(=O)O
Settings	solubility (mole fraction)
in DMAc, 295.05 K	0.163
in DMAc, 296.15 K	0.168
in DMAc, 298.35 K	0.18
in DMAc, 301.15 K	0.193
in DMAc, 302.95 K	0.201
in DMAc, 305.05 K	0.211
in DMAc, 306.35 K	0.22
in DMAc, 308.15 K	0.229
in DMAc, 309.25 K	0.238
in DMAc, 310.65 K	0.249
in DMAc, 312.15 K	0.258
in DMAc, 313.15 K	0.268
in DMAc, 314.35 K	0.276
in DMAc, 316.05 K	0.286
in DMAc, 316.65 K	0.295
in DMAc, 318.15 K	0.305
in DMAc, 319.15 K	0.314
in DMAc, 321.15 K	0.323
in DMAc, 323.15 K	0.334
in DMAc, 325.05 K	0.343
in DMAc, 326.85 K	0.353
in DMAc, 328.15 K	0.362
in DMAc, 329.35 K	0.373
in DMAc, 330.35 K	0.381
in DMAc, 331.25 K	0.389
in DMAc, 331.95 K	0.396
in DMAc, 333.15 K	0.405
in DMAc, 333.95 K	0.415
in DMAc, 334.95 K	0.427
in DMF, 304.15 K	0.399
in DMF, 309.15 K	0.42
in DMF, 311.05 K	0.426
in DMF, 314.65 K	0.435
in DMF, 316.75 K	0.441
in DMF, 319.15 K	0.446
in DMF, 323.35 K	0.464
in DMF, 326.15 K	0.476
in DMF, 328.65 K	0.481
in DMF, 330.75 K	0.491
in DMF, 332.45 K	0.499
in DMF, 335.35 K	0.509
in DMF, 338.25 K	0.516
in DMF, 342.15 K	0.528
in DMSO, 291.55 K	0.333
in DMSO, 304.25 K	0.344
in DMSO, 306.25 K	0.348
in DMSO, 309.65 K	0.352
in DMSO, 313.65 K	0.354
in DMSO, 317.25 K	0.357
in DMSO, 321.65 K	0.362
in DMSO, 324.15 K	0.364
in DMSO, 328.15 K	0.368
in DMSO, 331.35 K	0.37
in DMSO, 335.15 K	0.373
in DMSO, 339.65 K	0.378
in DMSO, 342.15 K	0.38
in NMP, 293.55 K	0.0649
in NMP, 298.35 K	0.0801
in NMP, 303.25 K	0.0925
in NMP, 305.15 K	0.0988
in NMP, 307.95 K	0.105
in NMP, 310.15 K	0.116
in NMP, 314.05 K	0.128
in NMP, 319.25 K	0.147
in NMP, 321.65 K	0.158
in NMP, 325.15 K	0.173
in NMP, 327.25 K	0.184
in NMP, 330.15 K	0.202
in NMP, 333.25 K	0.219
in acetonitrile, 296.95 K	0.0247
in acetonitrile, 302.05 K	0.0282
in acetonitrile, 308.25 K	0.0323
in acetonitrile, 314.65 K	0.0367
in acetonitrile, 318.35 K	0.039
in acetonitrile, 321.15 K	0.0402
in acetonitrile, 323.35 K	0.0417
in acetonitrile, 325.15 K	0.0429
in acetonitrile, 327.15 K	0.0443
in acetonitrile, 329.15 K	0.0457
in acetonitrile, 330.95 K	0.048
in acetonitrile, 332.75 K	0.0491
in acetonitrile, 334.35 K	0.0504
in n-methylformamide, 294.35 K	0.184
in n-methylformamide, 298.95 K	0.19
in n-methylformamide, 303.35 K	0.196
in n-methylformamide, 307.35 K	0.201
in n-methylformamide, 311.15 K	0.203
in n-methylformamide, 315.35 K	0.207
in n-methylformamide, 318.95 K	0.211
in n-methylformamide, 323.15 K	0.216
in n-methylformamide, 327.95 K	0.221
in n-methylformamide, 334.35 K	0.229
in propionic acid, 298.75 K	0.00308
in propionic acid, 306.65 K	0.00404
in propionic acid, 312.15 K	0.00478
in propionic acid, 316.15 K	0.00524
in propionic acid, 320.65 K	0.00579
in propionic acid, 323.65 K	0.00642
in propionic acid, 327.75 K	0.00704
in propionic acid, 331.35 K	0.0079
in propionic acid, 335.15 K	0.00876
in propionic acid, 338.75 K	0.00983
